From patent publication US20170226518A1, “COMPOSITIONS AND METHODS FOR TREATING CANCER” (Autotelic LLC, priority 2016, published 2017)
In the oligonucleotide strings, read from the 5' end, every base follows the letter of its sugar. An asterisk marks phosphorothioate; unmarked linkages are phosphodiester. Other units and linkages are bracketed, terminal groups are in braces. A string of capitals states the bases alone. d = 2'-deoxy (DNA)

Key:
A-172 glioma cells = assay: Migration of A-172 glioma cells; assay type: cell-based; settings: AP12009 10 μM as monotherapy, compared with untreated control
Experimental: A-172 glioma cells were treated with a combination of AP12009 (trabedersen) 0 to 10 μM) and different concentrations of TMZ (temozolomide) for 7 days (treatment schedule 2*2/1*3 d).

TGFβ2 = TGFβ2 secretion/expression in HUP-T3 pancreatic cancer cells; assay type: cell-based; settings: 10 μM AP12009 as monotherapy
Experimental: The aim of the study was to determine the effect of AP12009 (trabedersen) treatment in combination with 5-Fluorouracil (5-FU) on TGFβ2 secretion and on cellular proliferation of HUP-T3 pancreatic cancer cells and WiDr colon cancer cells in vitro.
10 μM of AP12009 as monotherapy decreased cell proliferation (53% proliferation of untreated control) and TGFβ2 expression (42% of untreated control) in HUP-T3 cells.

[1] = Phase I/II dose escalation study P-001: safety and tolerability (MTD, DLT, TEAE, SAE), i.v. infusion; assay type: in vivo, human
Experimental: Over-expression of transforming growth factor-beta 2 (TGF-β2) is associated with poor prognosis and plays a key role for malignant progression of various tumors by inducing proliferation, metastasis, angiogenesis and immunosuppression. P-001 trial of trabedersen—Safety and Tolerability of AP 12009 (trabedersen), Administered I.V. in Patients With Advanced Tumors Known to Overproduce TGFβ2, was evaluated to determine if treatment with trabedersen primed the tumors to subsequent chemotherapy.
In the instant study, the primary objective was to determine the Maximum Tolerated Dose (MTD) and the Dose Limited Toxicity (DLT) of two cycles of trabedersen administered intravenously (i.v.) for either 7 days every other week (i.e. 7 days on/7 days off) or for 4 days every other week (4 days on/10 days off). The secondary objective included assessment of antitumor activity of trabedersen administered intravenously for either 7 days every other week (i.e. 7 days on/7 days off) or for 4 days every other week (4 days on/10 days off).
The escalation scheme of this study aimed to determinate the MTD of two cycles of trabedersen (so called ‘core study period’) administered as a continuous i.v. infusion for 7 days every other week (7-days-on/7-days-off) or for 4 days every other week (4-days-on/10-days-off).
In general, it was planned to enroll a cohort of at least 3 evaluable patients per treatment group. For each cohort, the safety data obtained until end of the core study period (period for DLT-assessment, Cycle 1 and Cycle 2) were assessed in an interim analysis and evaluated by a Data and Safety Monitoring Board (DSMB). […] If 2 of these 3 patients experienced a DLT, the number of evaluable patients for the subsequent treatment group was increased to 6 for further evaluation of toxicity. Patients who were withdrawn from the study due to adverse events (AEs) attributed to DLT by the treating clinician, were not replaced but were used to determine the MTD and to evaluate the safety of the study drug. If patients were withdrawn due to other reasons, they were replaced until the treatment group was complete.
The MTD was determined according to the following procedure: If 2 out of 3 patients of 1 cohort experienced a DLT, 3 more patients were enrolled in the same treatment group. If at least 1 of these additional 3 patients also met the toxicity criteria for a DLT, the MTD for two cycles was determined; otherwise the dose escalation was continued upon agreement with the DSMB. MTD for two cycles was then defined as the dose at which no more than 2 out of 3, or 2 out of 6 patients of the same treatment group experienced a DLT. This procedure was followed until the MTD was reached.
After dose escalation had been completed, an additional larger cohort of patients was enrolled and treated with a dose of 140 mg/m^2/day employing the 4-days-on/10-days-off schedule, with endorsement by the DSMB. This cohort was to include at least 12 patients with a histologically or cytologically confirmed diagnosis of stage III or IV pancreatic cancer, corresponding to AJCC 1997 stage IVa and IVb, respectively, and at least 12 patients with stage III or IV melanoma.
The safety population comprised of 61 patients, representing all patients for whom at least once a trabedersen infusion was started. According to the protocol, the MTD was determined according to the following procedure: if 2 out of 3 patients of one cohort experience dose-limiting toxicity, 3 more patients were enrolled in the same treatment group. If at least 1 more patient of this second cohort met the toxicity criteria, MTD for two cycles has been determined (otherwise escalation was continued). MTD for two cycles was then defined as the dose at which no more than 2 out of 3 or 2 out of 6 patients of the same treatment group experienced DLT. […] In the case that 2 patients of the first cohort experienced DLTs that clearly indicated attainment of the MTD, the second cohort could also be omitted. […]

[2] = 4-days-on and 10-days-off schedule
[3] = 4-days-on, 10-daysoff schedule (N = 44)
[4] = 7-days-on and 7-days-off schedule
[5] = 7-days-on, 7-daysoff schedule (N = 17)

Substance: trabedersen: TGFβ2 specific phosphorothioate antisense oligodeoxynucleotide with the sequence 5′-CGGCATGTCTATTTTGTA-3′ (SEQ ID No: 1) (antisense dC*dG*dG*dC*dA*dT*dG*dT*dC*dT*dA*dT*dT*dT*dT*dG*dT*dA)
- effect on migration of A-172 cells (A-172 glioma cells): did not affect migration
- TGFβ2 expression (% of untreated control) (TGFβ2): 42%
- DLT observed ([1]; 140 mg/m^2/day, 4-days-on and 10-days-off schedule, one patient): dose-limiting Grade 3 upper gastrointestinal hemorrhage
- patients who experienced a DLT ([1]; 240 mg/m^2/day, 7-days-on and 7-days-off, 2 Grade 3 thrombocytopenia, 1 Grade 3 maculopapular rash): 3 patients
- frequency of patients with TEAEs that led to treatment discontinuation [1, 2]: 15.9%
- patients with TEAEs that led to treatment discontinuation [1, 2]: 7 patients
- Any SAE: No. (%) of patients with SAE [1, 3]: 18 (40.9) No. (%) of patients
- Any SAE: No. of SAEs [1, 3]: 28 No. of SAEs
- Ascites: No. (%) of patients with SAE [1, 3]: 0 No. (%) of patients
- Cancer Pain: No. (%) of patients with SAE [1, 3]: 2 (4.5) No. (%) of patients
- Cancer Pain: No. of SAEs [1, 3]: 2 No. of SAEs
- Catheter related Infection: No. (%) of patients with SAE [1, 3]: 1 (2.3) No. (%) of patients
- Catheter related Infection: No. of SAEs [1, 3]: 1 No. of SAEs
- Cholangitis: No. (%) of patients with SAE [1, 3]: 3 (6.8) No. (%) of patients
- Cholangitis: No. of SAEs [1, 3]: 3 No. of SAEs
- Cholestasis: No. (%) of patients with SAE [1, 3]: 1 (2.3) No. (%) of patients
- Cholestasis: No. of SAEs [1, 3]: 1 No. of SAEs
- GI hemorrhage: No. (%) of patients with SAE [1, 3]: 1 (2.3) No. (%) of patients
- GI hemorrhage: No. of SAEs [1, 3]: 2 No. of SAEs
- Pneumonia: No. (%) of patients with SAE [1, 3]: 0 No. (%) of patients
- Upper GI hemorrhage: No. (%) of patients with SAE [1, 3]: 1 (2.3) No. (%) of patients
- Upper GI hemorrhage: No. of SAEs [1, 3]: 1 No. of SAEs
- frequency of patients with TEAEs that led to treatment discontinuation [1, 4]: 41.2%
- patients with TEAEs that led to treatment discontinuation [1, 4]: 7 patients
- daily dose of MTD ([1]; 7-days-on and 7-days-off schedule, approx.): approx. 4 mg/kg/day
- Any SAE: No. (%) of patients with SAE [1, 5]: 12 (70.6) No. (%) of patients
- Any SAE: No. of SAEs [1, 5]: 28 No. of SAEs
- Ascites: No. (%) of patients with SAE [1, 5]: 3 (17.6) No. (%) of patients
- Ascites: No. of SAEs [1, 5]: 3 No. of SAEs
- Cancer Pain: No. (%) of patients with SAE [1, 5]: 0 No. (%) of patients
- Catheter related Infection: No. (%) of patients with SAE [1, 5]: 2 (11.8) No. (%) of patients
- Catheter related Infection: No. of SAEs [1, 5]: 2 No. of SAEs
- Cholangitis: No. (%) of patients with SAE [1, 5]: 1 (5.9) No. (%) of patients
- Cholangitis: No. of SAEs [1, 5]: 1 No. of SAEs
- Cholestasis: No. (%) of patients with SAE [1, 5]: 1 (5.9) No. (%) of patients
- Cholestasis: No. of SAEs [1, 5]: 1 No. of SAEs
- GI hemorrhage: No. (%) of patients with SAE [1, 5]: 2 (11.8) No. (%) of patients
- GI hemorrhage: No. of SAEs [1, 5]: 3 No. of SAEs
- Pneumonia: No. (%) of patients with SAE [1, 5]: 3 (17.6) No. (%) of patients
- Pneumonia: No. of SAEs [1, 5]: 3 No. of SAEs
- Upper GI hemorrhage: No. (%) of patients with SAE [1, 5]: 1 (5.9) No. (%) of patients
- Upper GI hemorrhage: No. of SAEs [1, 5]: 1 No. of SAEs
- Maximum Tolerated Dose (MTD) ([1]; 4 days on and 10 days off regimen, MTD not reached at highest dose tested): > 330 mg/m^2/d
- Maximum Tolerated Dose (MTD) ([1]; 7 days on and 7 days off regimen, continuous i.v. infusion, two cycles): 160 mg/m^2/d
- Any SAE: No. (%) of patients with SAE ([1]; Total (N = 61)): 30 (49.2) No. (%) of patients
- Any SAE: No. of SAEs ([1]; Total (N = 61)): 56 No. of SAEs
- Ascites: No. (%) of patients with SAE ([1]; Total (N = 61)): 3 (4.9) No. (%) of patients
- Ascites: No. of SAEs ([1]; Total (N = 61)): 3 No. of SAEs
- Cancer Pain: No. (%) of patients with SAE ([1]; Total (N = 61)): 2 (3.3) No. (%) of patients
- Cancer Pain: No. of SAEs ([1]; Total (N = 61)): 2 No. of SAEs
- Catheter related Infection: No. (%) of patients with SAE ([1]; Total (N = 61)): 3 (4.9) No. (%) of patients
- Catheter related Infection: No. of SAEs ([1]; Total (N = 61)): 3 No. of SAEs
- Cholangitis: No. (%) of patients with SAE ([1]; Total (N = 61)): 4 (6.6) No. (%) of patients
- Cholangitis: No. of SAEs ([1]; Total (N = 61)): 4 No. of SAEs
- Cholestasis: No. (%) of patients with SAE ([1]; Total (N = 61)): 2 (3.3) No. (%) of patients
- Cholestasis: No. of SAEs ([1]; Total (N = 61)): 2 No. of SAEs
- GI hemorrhage: No. (%) of patients with SAE ([1]; Total (N = 61)): 3 (4.9) No. (%) of patients
- GI hemorrhage: No. of SAEs ([1]; Total (N = 61)): 3 No. of SAEs
- Pneumonia: No. (%) of patients with SAE ([1]; Total (N = 61)): 3 (4.9) No. (%) of patients
- Pneumonia: No. of SAEs ([1]; Total (N = 61)): 3 No. of SAEs
- Upper GI hemorrhage: No. (%) of patients with SAE ([1]; Total (N = 61)): 2 (3.3) No. (%) of patients
- Upper GI hemorrhage: No. of SAEs ([1]; Total (N = 61)): 2 No. of SAEs
- frequency of patients with TEAEs that led to treatment discontinuation ([1]; all patients): 23.0%
- patients with TEAEs that led to treatment discontinuation ([1]; all patients): 14 patients
- total of TEAEs that led to treatment discontinuation ([1]; all patients): 23 TEAEs
- frequency of patients with TEAEs that led to treatment discontinuation ([1]; colorectal cancer): 40.0%
- patients with TEAEs that led to treatment discontinuation ([1]; colorectal cancer): 2 patients
- frequency of patients with TEAEs that led to treatment discontinuation ([1]; melanoma): 15.8%
- patients with TEAEs that led to treatment discontinuation ([1]; melanoma): 3 patients
- frequency of patients with TEAEs that led to treatment discontinuation ([1]; pancreatic cancer): 24.3%
- patients with TEAEs that led to treatment discontinuation ([1]; pancreatic cancer): 9 patients
- patients for whom a DLT was proclaimed ([1]; whole study: 2 pancreatic carcinoma, 2 colorectal cancer): 4 patients
